According to patent publication US9937235B2, “Lipidated peptides as anti-obesity agents” (USTAV ORGANICKE CHEMIE A BIOCHEMIE AKADEMIE VED CR, V.V.I, priority 2012, dated 2018):
Where a SMILES comes first, the peptide text is derived from it. [ ]: non-standard residue; d: D form. The star is where a group is joined. Palmitoyl = CCCCCCCCCCCCCCCC(=O)*; Myristoyl = CCCCCCCCCCCCCC(=O)*; Nle = CCCC[C@H](N)C(=O)O; Dap = NC[C@H](N)C(=O)O

What was measured:
[1] = tested on: MAPK/ERK1/2 signaling pathway in RC-4B/C cells; assay: MAPK/ERK1/2 signaling in RC-4B/C cells (Western blot); format: cell-based, rat; conditions: 10^−6 mol·l^−1, 5 minute incubation
[2] = tested on: Fos immunoreactivity in Arc, PVN and NTS; assay: Fos immunohistochemistry after SC administration; format: in vivo, mouse; conditions: 90 minutes after SC 5 mg/kg, fasted mice
Protocol: For Fos immunohistochemical processing, overnight fasted mice (n=5 mice/group) were treated SC with saline, [Dpr^1]PrRP31, [Dpr(oct)^1]PrRP31, [Dpr(myr)^1]PrRP31 or [Dpr(palm)^1]PrRP31 (dose 5 mg/kg). Ninety minutes after SC injection, the mice were deeply anesthetized with pentobarbital (50 mg/kg, IP) and perfused transcardially with 0.1 M phosphate buffer (PB, pH 7.4) containing 4% paraformaldehyde, 0.1% glutaraldehyde, and 10% picric acid (w/w). Then the brains were removed, postfixed in the same fixative overnight at 4° C., and infiltrated with 30% sucrose in 0.1 M PB for 48 h at 4° C. Before sectioning, the brains were rapidly (20 sec) frozen in cold isopentane (−30/−40° C.) and placed into a Reichert cryocut device adjusted to −16° C. for 1 h. 30 μm coronal sections were cut from the brains and collected as free floating in cold (4° C.) PB. […]
An identical set of mice was used for determination of Fos immunoreactivity in NTS, PVN, and Arc. […] Quantitative assessment was performed from the images captured with a Canon digital camera (PowerShot S40) and Leica DMLS light microscope in a computer screen obtained from 5-6 brain sections per animal. […] The counting of Fos-positive neurons was done under blinded conditions (the counted slides from each animal were analyzed independently and randomly and encoded by other person).

SMILES	ERK signaling [1]	Neural activity, Fos immunoreactivity [2]
CCCCCCCCCCCCCC(=O)NC[C@H](N)C(=O)N[C@@H](CCCNC(=N)N)C(=O)N[C@@H](C)C(=O)N[C@@H](Cc1c[nH]cn1)C(=O)N[C@@H](CCC(N)=O)C(=O)N[C@@H](Cc1c[nH]cn1)C(=O)N[C@@H](CO)C(=O)N[C@@H](CCCC)C(=O)N[C@@H](CCC(=O)O)C(=O)N[C@H](C(=O)N[C@@H](CCCNC(=N)N)C(=O)N[C@H](C(=O)N1CCC[C@H]1C(=O)N[C@@H](CC(=O)O)C(=O)N[C@H](C(=O)N[C@@H](CC(N)=O)C(=O)N1CCC[C@H]1C(=O)N[C@@H](C)C(=O)N[C@@H](Cc1c[nH]c2ccccc12)C(=O)N[C@@H](Cc1ccc(O)cc1)C(=O)N[C@H](C(=O)NCC(=O)N[C@@H](CCCNC(=N)N)C(=O)NCC(=O)N[C@H](C(=O)N[C@@H](CCCNC(=N)N)C(=O)N1CCC[C@H]1C(=O)N[C@H](C(=O)NCC(=O)N[C@@H](CCCNC(=N)N)C(=O)N[C@@H](Cc1ccccc1)C(N)=O)C(C)C)[C@@H](C)CC)[C@@H](C)O)[C@@H](C)CC)[C@@H](C)O)[C@@H](C)O [Analog 5] (H-[Dap](Myristoyl)RAHQHS[Nle]ETRTPDINPAWYTGRGIRPVGRF-NH2)	agonist	significantly increased
CCCCCCCCCCCCCCCC(=O)NC[C@H](N)C(=O)N[C@@H](CCCNC(=N)N)C(=O)N[C@@H](C)C(=O)N[C@@H](Cc1c[nH]cn1)C(=O)N[C@@H](CCC(N)=O)C(=O)N[C@@H](Cc1c[nH]cn1)C(=O)N[C@@H](CO)C(=O)N[C@@H](CCCC)C(=O)N[C@@H](CCC(=O)O)C(=O)N[C@H](C(=O)N[C@@H](CCCNC(=N)N)C(=O)N[C@H](C(=O)N1CCC[C@H]1C(=O)N[C@@H](CC(=O)O)C(=O)N[C@H](C(=O)N[C@@H](CC(N)=O)C(=O)N1CCC[C@H]1C(=O)N[C@@H](C)C(=O)N[C@@H](Cc1c[nH]c2ccccc12)C(=O)N[C@@H](Cc1ccc(O)cc1)C(=O)N[C@H](C(=O)NCC(=O)N[C@@H](CCCNC(=N)N)C(=O)NCC(=O)N[C@H](C(=O)N[C@@H](CCCNC(=N)N)C(=O)N1CCC[C@H]1C(=O)N[C@H](C(=O)NCC(=O)N[C@@H](CCCNC(=N)N)C(=O)N[C@@H](Cc1ccccc1)C(N)=O)C(C)C)[C@@H](C)CC)[C@@H](C)O)[C@@H](C)CC)[C@@H](C)O)[C@@H](C)O [Analog 6] (H-[Dap](Palmitoyl)RAHQHS[Nle]ETRTPDINPAWYTGRGIRPVGRF-NH2)	agonist	significantly increased
